# Legend:
# [1] = tested on: HL-60 cells; assay: Neutrophil adsorption analysis on fibronectin; assay type: cell-based; conditions: 100, 10, and 1 ug/mL of PLAG; 10 ng/ml of IL-4; WST-1 assay and cell number
# Source text: In order to determine the effect of PLAG on neutrophil adsorption of fibronectin, 24-well tissue culture plates were coated with fibronectin as in previous studies (Wang Y H, Wang W Y, Liao J F, Chen C F, Hou Y C, Liou K T, Chou Y C, et al. Prevention of macrophage adhesion molecule-1 (Mac-1)-dependent neutrophil firm adhesion by taxifolin through impairment of protein kinase-dependent NADPH oxidase activation and antagonism of G protein-mediated calcium influx. Biochem Pharmacol 2004; 67:2251-2262.). The plates were incubated with 25 ug/ml of fibronectin at 37° C. for 2 hours. The unbounded protein was removed by washing, neutrophils were pre-treated with PLAG 2 hours before the experiment, and neutrophil activity was performed with IL-4 for 4 hours. Non-adsorbed neutrophils were eluted by aspiration and washed twice with PBS. Attached neutrophils were determined by calculating the number of cells at the bottom of each well using a homocytometer. The remaining adsorbed cells were stored in an incubator for 18 hours, at which time the cells were exposed to WST-1 reagent (Roche Applied Science) for spectrometric evaluation.
# [2] = tested on: hepatitis induced by concanavalin A; assay: Liver tissue cytokine analysis (ELISA, RT-PCR) in Con A-induced hepatitis mice; assay type: in vivo, Balb/c mice
# Description: (§1) In order to confirm the preventive and therapeutic effects of hepatitis by 1-palmitoyl-2-linoleoyl-3-acetylglycerol (EC-18 or PLAG), the experiment was performed using an attenuation model of hepatitis induced by concanavalin A (hereinafter, referred to as ConA). As an experimental model, 10-week-old Balb/c mice (Koatech, Korea) were maintained under specific pathogen free (SPF) environment and used, and PLAG and PLG (ENZYCHEM Lifesciences, Korea) were prepared before or after in vivo or in vitro treatment. In addition, Hep3B, HepG2, EL-4 and HL-60 cell lines (American Type Culture Collection, ATCC) were incubated under 5% CO2 and a temperature of 37° C. The values in the comparison between groups performed in vivo were analyzed using one analysis method of the analysis of variance (ANOVA), and the values in the comparison of two experimental groups performed in vitro were analyzed using independent student's t test. Statistical significance was assumed to be p<0.05.
# (§2) Mice were randomly divided into three groups: control group, Con A-treated group, and PLAG-pretreated group. The Con A and PLAG were all dissolved in PBS (phosphate buffer saline) and used. PBS or PLAG was orally administered to the mice, and after 2 hours, 20 mg/kg BW of Con A was intravenously injected into each of the Con A-treated group and the PLAG-pretreated group. Thereafter, PLAG was orally administered to mice at a dose of 100 mg/kg BW. Here, BW means body weight.
# (§3) Blood samples were obtained from cardiac punctures 18 hours after administration of Con A in the mice of Example and centrifuged at 3,000 rpm for 10 minutes. For the measurement of cytokines in liver tissue ligate liquids, the animals were sacrificed and the liver was washed with PBS. The liver was homogenized and filtered using a 70 μm mesh cell strainer (BD Falcon cell strainer, BD Biosciences, Bedford, Mass.) in PBS. The supernatant was also collected by centrifugation at a rate of 2,000 rpm for 5 minutes. The lower cell pellet was resuspended in PBS and analyzed for complete blood cell count (CBC). Plasma samples and supernatants of liver lysate were maintained at minus 20° C. until cytokines were measured. The concentrations of IL-6, IL-10, IL-4, MIP-2 and IFNγ were detected using Set ELISA.
# (§4) Total RNA was isolated from the liver homogenate with TRIzol reagent (Incitrogen, Carlsbad, Calif.). HL-60 cells were plated in 12-well plates (1×10^6/well) and treated in the same manner as in Experimental Example 4. cDNA was synthesized from total cellular RNA using M-MLV reverse transcriptase and oligo-dT (Promega, Madison, Wis.).
# (§5) The amount of cDNA amplification of the reaction samples was confirmed by 2% agarose gel (Roche Applied Science, Salt Lake City, Utah) electrophoresis.
# [3] = tested on: hepatitis induced by concanavalin A; assay: Plasma cytokine analysis (ELISA) in Con A-induced hepatitis mice; assay type: in vivo, Balb/c mice; conditions: Con A 20 mg/kg BW i.v., PLAG oral 100 mg/kg BW, blood 18 hours after Con A
# Description: as §1, §2, §3
# [4] = tested on: hepatitis induced by concanavalin A; assay: Histological analysis of liver (hematoxylin-eosin, anti-neutrophil antibody staining); assay type: in vivo, Balb/c mice
# Description: as §1, §2
# The site of liver was collected from a mouse 8 hours after administration of Con A to the mouse of Example 1. The site of liver was fixed in 10% neutral buffered formalin, embedded in paraffin and cut to a thickness of 5 um. After removing the paraffin and rehydration, the flakes were stained with hematoxylin and eosin. In addition, for identification of neutrophils, the site of liver was stained with anti-mouse neutrophil antibody. All samples were evaluated histologically under a Leica (Leica, Wetzlar, Germany) optical microscope, and digital images were taken at ×200 magnification.
# [5] = tested on: PKCδ; assay: Western blot assay, phospho-PKC isotypes in HL-60 cells: PKCδ; assay type: cell-based; conditions: IL-4 stimulation
# Description: (§6) HL-60 cells were plated in 12-well plates (1×10^6/well) and treated as described above. Total protein extracts were immunoblotted with phospho-PKC homologous proteins (δ, θ, ξ/λ, α/β) (Cell Signaling) and GAPDH Abs (Santa Cruz Biotechnology Inc., CA). Detection was performed using Immobilon Western Chemiluminescent HRP Substrate (Millipore Corporation, Billerica, Mass.).
# [6] = tested on: STAT6; assay: Western blot assay, IL-4-induced STAT6 phosphorylation in Hep3B cells; assay type: cell-based; conditions: for phosphorylation of STAT6, comparison of PLAG and PLG: Hep3B cells, anti-phospho-STAT6 Western blot
# Description: (§7) Hep3B cells were plated in 12 well plates (2.5×10^5 cells/well) and treated with PLAG at various concentrations (0.1, 1, 10, 100 ug/mL), and after 2 hours, activated with IL-4 for 1 hour. Whole protein extracts were immunoblotted with phospho-STAT6, STAT6, phospho-JAK1 and phosphor-PKCξ/λ Abs (cell signaling).
# [7] = tested on: STAT6; assay: Luciferase reporter gene analysis, STAT6 transcriptional activity in HepG2 and Hep3B cells; assay type: cell-based; conditions: 10 and 100 ug/ml of PLAG; 10 ng/ml IL-4 for 6 hours
# Description: HepG2 and Hep3B cells were transfected into reporter luciferase plasmids containing four pairs of STAT6 binding sites (p4xSTAT6-Luc2P; Addgene, Cambridge, Mass.), and the reporter vector was transfected into the Attractene reagent and cell line. For the activity of STAT6 reporter vectors, 10 ng/ml of IL-4 was treated with cells for 6 hours, and the luciferase activity was measured by a luminometer using a luciferase assay system. The luciferase activity of each sample was normalized to those corresponding to the PLAG transduced samples.
# [8] = tested on: PKCα/β; assay: Western blot assay, phospho-PKC isotypes in HL-60 cells: PKCα/β; assay type: cell-based; conditions: IL-4 stimulation
# Description: as §6
# [9] = tested on: PKCθ; assay: Western blot assay, phospho-PKC isotypes in HL-60 cells: PKCθ; assay type: cell-based; conditions: IL-4 stimulation
# Description: as §6
# [10] = tested on: hepatitis induced by concanavalin A; assay: Hematological analysis (CBC) of whole blood and liver samples; assay type: in vivo, Balb/c mice; conditions: PLAG additionally administered
# Description: as §1, with “Statistical significance was assumed to be p<0.05.” left out
# Whole blood and liver samples were collected from the mice of Example 1 18 hours after administration of Con A. The cleaved liver collected from the mouse was homogenized as described in Experimental Example 1. Complete blood count (CBC) analysis included whole white blood cell quantification, part of neutrophils and lymphocytes of whole white blood cells, and hematology analysis was performed using Mindray BC 5300 (Shenzhen Mindray Bio-medical Electronics, China).
# [11] = tested on: Hep3B cells; assay: WST assay, cytotoxicity in Hep3B cells; assay type: cell-based; conditions: 24 hours of incubation, PLAG 1,000 ug/mL or greater
# Description: (§8) FIG. 7 is a graph showing the results of WST assay of […] depending on the dose of PLAG when the composition of the present invention was administered, and FIG. 8 is a graph showing the inhibitory effect of IL-4-induced STAT6 activity and related signaling mechanism depending on the dose of PLAG when the composition of the present invention was administered. […] HepG2 and Hep3B were used as liver cells, and HL-60 was used as neutrophil cells. Cytotoxicity of EC-18 in liver cells and leukocytes was confirmed by WST assay. Survival of Hep3B and HL-60 cells was not affected during 24 hours of incubation with PLAG each having a concentration of 1,000 ug/mL or greater (see FIG. 7). Based on the results of the WST assay, 100, 10, and 1 ug/mL of PLAG were used for the cells. The activities of PKC-ξ/λ, JAK1 and STAT6 played an important role in ConA-induced hepatitis, and these kinases were increased by IL-4. […] Therefore, it can be seen that PLAG can effectively control IL-4-induced hepatitis by alleviating PKC-ξ/λ activity.
# [12] = tested on: HL-60 cells; assay: WST assay, cytotoxicity in HL-60 cells; assay type: cell-based; conditions: 24 hours of incubation, PLAG 1,000 ug/mL or greater
# Description: as §8
# [13] = tested on: HL-60 cells; assay: RT-PCR analysis of IL-8 and VCAM-1 expression in IL-4-stimulated HL-60 cells; assay type: cell-based, human; conditions: HL-60 cells stimulated by IL-4, RT-PCR, dose-dependent
# Description: as §4, §5
# [14] = tested on: PKC-ξ/λ; assay: Western blot assay, IL-4-induced PKC phosphorylation; assay type: cell-based; conditions: dose-dependent; 0.1, 1, 10, 100 ug/mL, 2 hours before IL-4 for 1 hour
# Description: as §7, §6
# [15] = ConA-administered mice, PLAG further administered, vs ConA group
# [16] = RT-PCR, ConA-induced liver tissue
compound,measurement,setting,value
"CCCCC/C=C\C/C=C\CCCCCCCC(=O)OC(COC(C)=O)COC(=O)CCCCCCCCCCCCCCC (racemic) [PLAG, 1-palmitoyl-2-linoleoyl-3-acetyl-rac-glycerol]",adsorption of HL-60 to coated fibronectin,[1],significantly reduced
same,expression of IL-4 (protein and mRNA) in liver tissue,[2]; [15],significantly reduced
same,expression of MIP-2 (protein and mRNA) in liver tissue,[2]; [15],significantly reduced
same,expression of CXCR4 mRNA in liver tissue,[2]; [16],down-regulates
same,expression of adsorbed molecules ICAM-1 and VCAM in liver tissue,[2]; [16],does not affect
same,IL-4 in mouse plasma,[3]; vs Con A group,decreased
same,IL-6 in mouse plasma,[3]; vs Con A group,decreased
same,IL-10 in mouse plasma,[3]; vs Con A group,decreased
same,MIP-2 in mouse plasma,[3]; vs Con A group,decreased
same,concentration of IFNγ in plasma,[3]; vs mice not treated with PLAG,not significantly reduced
same,neutrophils in liver enhanced by stimulation with ConA,"[4]; anti-neutrophil antibody staining, liver 8 hours after Con A",effectively alleviated
same,"pathological changes of liver (hepatocyte damage, neutrophil infiltration, necrotic foci)","[4]; hematoxylin-eosin staining, PLAG 100 mg/kg, 8 hours after ConA i.v.",markedly reduced
same,liver cell damage,"[4]; liver 8 hours after Con A, immunohistological staining, vs ConA-treated liver tissue",hardly damaged
same,relaxation of the activity of PKCδ,[5],affects the relaxation
same,"phosphorylation of STAT6, comparison of PLAG and PLG",[6],significantly reduced
same,phosphorylation of STAT6 induced by IL-4,"[6]; dose-dependent, 0.1, 1, 10, 100 ug/mL, 2 hours before IL-4 for 1 hour",considerably alleviated
same,STAT6 transcriptional activity,[7],effectively prevented
same,relaxation of PKCα/β activity,[8],did not affect
same,relaxation of the activity of PKCθ,[9],affects the relaxation
same,circulating neutrophils in blood,[10]; CBC 18 hours after Con A,significantly increased
same,number of neutrophils present in the liver,[10]; CBC of liver homogenate 18 hours after Con A,significantly reduced
same,survival of Hep3B cells,[11],not affected
same,survival of HL-60 cells,[12],not affected
same,expression of IL-8,[13],effectively suppressed
same,expression of VCAM-1,[13],effectively suppressed
same,phosphorylation of PKC induced by IL-4,[14],considerably alleviated
"CCCCC/C=C\C/C=C\CCCCCCCC(=O)OC(CO)COC(=O)CCCCCCCCCCCCCCC (stereo not drawn) [PLG, reference compound]","phosphorylation of STAT6, comparison of PLAG and PLG",[6],not altered
